Data set [1] concerns Human embryonic kidney 293T (HEK-293T) cells. The class given is cell-based. The protocol: (§1) IV. Cytotoxicity of the […]44-63 is measured and evaluated by using 3-(4,5-dimethylthiazol-2-yl)-5-(3-carboxymethoxyphenyl)-2-(4-sulfophenyl)-2H-tetrazolium (MTS) 1. Human embryonic kidney 293T (HEK-293T) cells and epithelioma papulosum […] (EPC) cells are selected to assess the cytotoxicity of the […]44-63. […] HEK-293T cells are incubated in a cell incubator with 5% CO2 at 37° C., and EPC cells are incubated in a cell incubator with 5% CO2 at 28° C. (2) 50 μL of medium is carefully sucked out, fresh media with or without different concentrations of the […]44-63 are respectively added to a corresponding well, put in a corresponding cell condition, and incubated for another 24 hours while leaving to stand. (3) 20 μL of an MTS-Phenazinemethosulfate (PMS) mixed solution is added and incubated for 4 hours, absorbance of each well is measured at OD492 nm in a microplate reader, and cell viabilities are calculated.

For data set [2], the system named is epithelioma papulosum cyprini (EPC) cells. The class given is cell-based. As for the experimental part: as §1
Data set [3] deals with Staphylococcus aureus CGMCC 1.2465. Particulars: CGMCC 1.2465, 24 h.
Data set [4] deals with Enterococcus faecium CGMCC 1.131. The following applies: CGMCC 1.131, 24 h.
In data set [5] the test system is Listeria monocytogenes CGMCC 1.10753. The following applies: CGMCC 1.10753, 24 h.
Data set [6] relates to Bacillus cereus CGMCC 1.3760. Particulars: CGMCC 1.3760, 24 h.
For data set [7], the system named is Staphylococcus aureus QZ19131. Particulars: QZ19131, 24 h.
Data set [8] concerns Enterococcus faecium QZ18080. The following applies: QZ18080, 24 h.
Data set [9] has as its system Enterococcus faecalis QZ19138. The following applies: QZ19138, 24 h.
In data set [10] the test system is Shigella flexneri CGMCC 1.1868. Particulars: 24 h.
In data set [11] the test system is Acinetobacter baumannii CGMCC 1.6769. The following applies: CGMCC 1.6769, 24 h.
For data set [12], the system named is Escherichia coli CGMCC 1.2389. Particulars: CGMCC 1.2389, 24 h.
In data set [13] the test system is Pseudomonas aeruginosa CGMCC 1.1785. The following applies: CGMCC 1.1785, 24 h.
For data set [14], the system named is Acinetobacter baumannii QZ20141. Particulars: QZ20141, 24 h.
A further data set has as its system Escherichia coli QZ18109. The following applies: QZ18109, 24 h.
Data set [15] concerns Pseudomonas aeruginosa QZ18071. Particulars: QZ18071, 24 h.
For data set [16], the system named is Klebsiella pneumoniae QZ18106. Particulars: QZ18106, 24 h.
The test system of data set [17] is Cryptococcus neoformans CGMCC 2.1563. The following applies: CGMCC 2.1563, 24 h.
Data set [18] concerns Candida albicans CGMCC 2.2411. Particulars: CGMCC 2.2411, 24 h.
The test system of data set [19] is Fusarium graminearum CGMCC 3.4521. The following applies: Filamentous fungi, incubated 24 hours.
Data set [20] relates to Fusarium solani CGMCC 3.584. The following applies: 24 h.

No end group written: not given here.

Consider “GKKKKRNMMKTKEPGIIFFF-NH2 [Scyampcin44-63]”, for which the “Cytotoxicity (cell viability, MTS)” value in data set [1] and in data set [2] was “no cytotoxicity” each time. The MBC is 3 to 6 µM in data set [3]; 0 to 3 µM in data set [4]; 0 to 3 µM in data set [5]; 3 to 6 µM in data set [6]; 3 to 6 µM in data set [7]; 0 to 3 µM in data set [8]. In addition, the MBC in [9] lay in the range of 3 to 6 µM; in [10], 0 to 3 µM; in data set [11], 0 to 3 µM; in data set [12], 0 to 3 µM; in [13], 6 to 12 µM; in [14], 3 to 6 µM. Also, the MBC against Escherichia coli QZ18109 lay within 0 to 3 µM; in data set [15], 6 to 12 µM; in data set [16], 3 to 6 µM; in data set [17], 0 to 3 µM; in data set [18], 3 to 6 µM; in data set [19], 3 to 6 µM. Also, in [20], the MBC is 3 to 6 µM.
